In patent publication US10653664B2, “Antibacterial compositions of mono-alkyl ethers of monoanhydro-hexitols and antibacterial methods using of the same” (TEREOS STARCH & SWEETENERS, priority 2014, dated 2020):
Converted amounts (≈) assume the structure as drawn.

Tests used:
Experiment in all cases: MIC, 96-well microplate microdilution (Example 14)
Assay type in all cases: cell-based
E. faecalis (ATCC 29212) = settings: Enterococcus faecalis, ATCC29212, Table 5, read-out: Minimum inhibitory concentration (MIC)
Experimental: (§1) The bacteriostatic properties of the derivatives are evaluated by measuring their minimum inhibitory concentration (MIC) on the bacteria tested. These measurements are made using the 96-well microplate microdilution method according to the conditions defined below. The minimum inhibitory concentrations (MIC) are tested on Gram-positive bacterial strains according to the recommendations of the “Clinical Laboratory Standards Institute” (Clinical-Laboratory-Standards-Institute, 6th ed. Approved standard M100-S17. CLSI, Wayne, Pa., 2007). The Gram-positive bacteria studied are as follows: L. monocytogenes (CIP 103575), E. faecalis (ATCC® 29212™) and S. aureus (ATCC® 292213 ™). The cultures studied, freshly isolated (after incubation on a blood agar at 37° C. for 18 h), are taken up in sterile water (10 mL) until obtaining a 0.5 McFarland (Mc) suspension i.e. 1 to 2×10^8 CFU (bacteria)/cm^3. The bacterial suspension was then diluted to obtain a final concentration of 5×10^5 CFU/cm3. Each well contains an identical quantity of Mueller-Hinton medium (a rich medium for bacterial culture) and bacteria with final 5×10^5 CFU/cm3. The test compounds of interest are solubilized in 2.5% of ethanol before being diluted to different concentrations two by two. On the multiwell plate, a first series has been planned comprising the culture medium without the test compound of interest. It corresponds to the growth control (control well). These controls serve as reference for comparing bacterial growth with that of the subsequent wells comprising different concentrations of the test compound of interest. The second series of wells comprises the mother solution for the test compound of interest for a concentration in the wells of 4 mM. Each series of wells was diluted two by two until the last series for a final concentration of 0.003 mM. Each concentration is duplicated in the same plate. The plate is incubated for 18 h at 37° C. […] If there is antibacterial activity, the bacterial growth is inhibited, which means that no turbidity or bacterial residue is present.

[1] = system: L. monocytogenes (CIP 103575); settings: for MIC: Listeria monocytogenes, CIP103575, Table 5, read-out: Minimum inhibitory concentration (MIC)
Experimental: as §1

S. aureus (ATCC 292213) = settings: for MIC: Staphylococcus aureus, ATCC292213, Table 5, read-out: Minimum inhibitory concentration (MIC)
Experimental: as §1

[2] = Table 7 comparison with reference products

Row | Structure (SMILES) | MIC (E. faecalis (ATCC 29212)) | MIC [1] | MIC (S. aureus (ATCC 292213)) | Minimum inhibitory concentration (MIC) [1, 2] | Minimum inhibitory concentration (MIC) (S. aureus (ATCC 292213); [2])
1 | CCCCCOCC(O)[C@H]1OCC(O)C1O (some centres unmarked) [Entry 1, (1,4)-sorbitan pentyl ethers] | > 4 mM | > 4 mM | > 4 mM | – | –
2 | CCCCCCOCC(O)[C@H]1OCC(O)C1O (some centres unmarked) [Entry 2] | > 4 mM | > 4 mM | > 4 mM | – | –
3 | CCCCCCCCCCCC(=O)OCC(O)CO (centres unmarked) [ML, monolaurine, reference compound] | – | – | – | 0.04 mM (≈ 11 µg/mL) | 0.04 mM (≈ 11 µg/mL)

Second part, the compound after the results:

Row | MIC (E. faecalis (ATCC 29212)) | MIC [1] | MIC (S. aureus (ATCC 292213)) | Minimum inhibitory concentration (MIC) [1, 2] | Minimum inhibitory concentration (MIC) (S. aureus (ATCC 292213); [2]) | Structure (SMILES)
4 | > 4 mM | > 4 mM | > 4 mM | – | – | CCCCCCCCOCC(O)[C@H]1OCC(O)C1O (some centres unmarked) [Entry 3, Octyl-1,4-sorbitan]
5 | > 4 mM | > 4 mM | > 4 mM | – | – | CCCCCCCCCCOCC(O)[C@H]1OCC(O)C1O (some centres unmarked) [Entry 4, Decyl-1,4-sorbitan]
